The record followed here is patent US20150152083A1, “Compounds and Compositions for Modulating EGFR Activity” (IRM LLC, A Delaware Limited Liability Company, priority 2012, published 2015).

Test [1] concerns the target T1, EGFR (L858R) (Homo sapiens, UniProt P00533, L858R).
T1 construct: host or cells: NIH3T3
Put plainly: EGFR target modulation in engineered NIH3T3 cell lines (phospho-EGFR AlphaLISA). In kind it is cell-based. The settings on record: NIH3T3 cells expressing human EGFR L858R; 3 hours compound. As to the method:
(§1) EGFR Target Modulation in Engineered NIH3T3 Cell Lines
(§2) NIH3T3 cell lines expressing human EGFR (WT, L858R, and L858RT790M) (obtained from Matthew Meyerson's Lab at DFCI) were maintained in 10% FBS/DMEM supplemented with 100 μg/ml Penicillin/Streptomycin (Hyclone #SV30010) and 2 μg/ml Puromycin. The cells were harvested with 0.05% Trypsin/EDTA (Hyclone #SH30236.01), re-suspended in 5% FBS/DMEM Pen/Strep without Puromycin and plated at 9,000 cells per well in 50 μl of media in a 384-well black plate with clear bottoms (Greiner #789068G). The cells were allowed to incubate overnight in a 37° C., 5% CO2 humidified tissue culture incubator. A 12-point test compound curve was prepared by serial diluting a 10 μM stock 1:3 in DMSO in a 384-well compound plate (Greiner #789201L). The serial diluted compounds were transferred to the plate containing cells by using a 50 nl Pin Head device (Perkin Elmer) and the cells were placed back in the incubator for 3 hours. Only the EGFR WT-expressing cells were induced with 50 ng/ml EGF (Preprotech #AF-100-15) for 5 minutes before lysis. The media was removed and cells were lysed in 25 μl of Lysis buffer containing protease and phosphatase inhibitors (1% Triton X-100, 20 mM Tris, pH 7.5, 1 mM EDTA, 1 mM EGTA, 150 mM NaCl, 1× complete cocktail inhibitor (Roche #11 697 498 001), 1× Phosphatase Inhibitor Cocktail Set II and Set III (Sigma #P5726 and #P0044)). The plates were shaken at 4° C. for 5 minutes with foil top at maximum speed. An aliquot of 5 μl from each well was transferred to ProxiPlate™ 384-well Plus plates (PE #6008289). The plates were sealed with a foil top and frozen at −80° C. and thawed when needed.
(§3) The frozen aliquots were thawed and briefly centrifuged. All antibodies and beads were diluted in 1× AlphaLISA HiBlock Buffer (PE #AL004C). Biotinylated anti-phospho-EGFR (Y1068) (Cell Signaling #4031) was incubated with the lysate for 1 hour at room temperature at 1 nM final concentration. Goat anti-total EGFR (R&D Systems #AF231) was added and allowed to equilibrate for 1 hour at room temperature at 1 nM final concentration. Then, 10 μl of mixed beads (AlphaScreen Streptavidin Donor Beads (PE #6760002S) and AlphaLISA anti-goat IgG Acceptor Beads (PE #AL107C)) was equilibrated for 1.5 hours before reading on EnVision plate reader using the built-in settings for AlphaScreen.
(§4) Cells untreated (L858R and L858RT790M) or EGF-induced (WT) were set to 100% maximum response. For a negative control, 10 μM HKI-272 was used to normalize data to 0% of maximum response. With these parameters, the IC50's for each compound in each cell line was calculated using non-linear curve fitting analysis.

In test [2] the target is T2, EGFR (WT) (Homo sapiens, UniProt P00533).
T2 construct: host or cells: NIH3T3
T2 sequence (P00533 25-1210): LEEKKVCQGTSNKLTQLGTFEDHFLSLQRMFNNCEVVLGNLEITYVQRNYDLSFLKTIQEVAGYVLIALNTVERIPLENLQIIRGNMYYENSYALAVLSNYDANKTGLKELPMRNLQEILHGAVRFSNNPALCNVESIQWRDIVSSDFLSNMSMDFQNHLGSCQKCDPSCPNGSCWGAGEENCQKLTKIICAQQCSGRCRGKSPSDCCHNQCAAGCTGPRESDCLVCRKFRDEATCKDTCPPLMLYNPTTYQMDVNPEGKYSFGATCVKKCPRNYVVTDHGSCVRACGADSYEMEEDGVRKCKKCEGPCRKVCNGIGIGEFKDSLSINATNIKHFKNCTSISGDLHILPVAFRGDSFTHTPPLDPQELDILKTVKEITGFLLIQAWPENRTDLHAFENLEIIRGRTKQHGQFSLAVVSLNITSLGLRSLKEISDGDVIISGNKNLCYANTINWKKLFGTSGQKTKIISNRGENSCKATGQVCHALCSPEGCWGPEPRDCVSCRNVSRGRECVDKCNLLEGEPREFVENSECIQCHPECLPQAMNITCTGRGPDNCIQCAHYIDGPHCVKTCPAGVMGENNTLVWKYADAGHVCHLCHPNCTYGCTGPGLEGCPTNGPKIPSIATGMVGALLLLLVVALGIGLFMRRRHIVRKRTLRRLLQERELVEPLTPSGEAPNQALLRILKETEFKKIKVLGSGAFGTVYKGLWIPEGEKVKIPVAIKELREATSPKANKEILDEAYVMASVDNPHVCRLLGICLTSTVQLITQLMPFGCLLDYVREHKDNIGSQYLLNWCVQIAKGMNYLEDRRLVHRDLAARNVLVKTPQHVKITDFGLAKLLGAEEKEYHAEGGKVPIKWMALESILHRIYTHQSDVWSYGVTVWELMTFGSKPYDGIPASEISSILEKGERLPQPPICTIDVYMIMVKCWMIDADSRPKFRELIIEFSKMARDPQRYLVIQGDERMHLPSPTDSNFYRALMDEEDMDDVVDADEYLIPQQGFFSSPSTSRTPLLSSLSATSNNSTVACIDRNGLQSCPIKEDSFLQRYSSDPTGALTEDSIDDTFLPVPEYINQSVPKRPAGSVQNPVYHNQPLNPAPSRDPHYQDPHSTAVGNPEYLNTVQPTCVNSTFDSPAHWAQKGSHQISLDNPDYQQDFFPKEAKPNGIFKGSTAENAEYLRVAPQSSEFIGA
The description is as above. In kind it is cell-based. The settings on record: NIH3T3 cells expressing human EGFR WT; 3 hours compound; induced with 50 ng/ml EGF. As to the method:
as §1, §2, §3, §4

In test [3] the target is T3, EGFR(L858R/T790M) (Homo sapiens, UniProt P00533, L858R/T790M). Described as above. It is filed as cell-based. Also on record: host or cells: NIH3T3. The settings on record: NIH3T3 cells expressing human EGFR L858R/T790M; 3 hours compound. As to the method: as §1, §2, §3, §4
Target sequence in this assay (P00533 25-1210 T790M/L858R): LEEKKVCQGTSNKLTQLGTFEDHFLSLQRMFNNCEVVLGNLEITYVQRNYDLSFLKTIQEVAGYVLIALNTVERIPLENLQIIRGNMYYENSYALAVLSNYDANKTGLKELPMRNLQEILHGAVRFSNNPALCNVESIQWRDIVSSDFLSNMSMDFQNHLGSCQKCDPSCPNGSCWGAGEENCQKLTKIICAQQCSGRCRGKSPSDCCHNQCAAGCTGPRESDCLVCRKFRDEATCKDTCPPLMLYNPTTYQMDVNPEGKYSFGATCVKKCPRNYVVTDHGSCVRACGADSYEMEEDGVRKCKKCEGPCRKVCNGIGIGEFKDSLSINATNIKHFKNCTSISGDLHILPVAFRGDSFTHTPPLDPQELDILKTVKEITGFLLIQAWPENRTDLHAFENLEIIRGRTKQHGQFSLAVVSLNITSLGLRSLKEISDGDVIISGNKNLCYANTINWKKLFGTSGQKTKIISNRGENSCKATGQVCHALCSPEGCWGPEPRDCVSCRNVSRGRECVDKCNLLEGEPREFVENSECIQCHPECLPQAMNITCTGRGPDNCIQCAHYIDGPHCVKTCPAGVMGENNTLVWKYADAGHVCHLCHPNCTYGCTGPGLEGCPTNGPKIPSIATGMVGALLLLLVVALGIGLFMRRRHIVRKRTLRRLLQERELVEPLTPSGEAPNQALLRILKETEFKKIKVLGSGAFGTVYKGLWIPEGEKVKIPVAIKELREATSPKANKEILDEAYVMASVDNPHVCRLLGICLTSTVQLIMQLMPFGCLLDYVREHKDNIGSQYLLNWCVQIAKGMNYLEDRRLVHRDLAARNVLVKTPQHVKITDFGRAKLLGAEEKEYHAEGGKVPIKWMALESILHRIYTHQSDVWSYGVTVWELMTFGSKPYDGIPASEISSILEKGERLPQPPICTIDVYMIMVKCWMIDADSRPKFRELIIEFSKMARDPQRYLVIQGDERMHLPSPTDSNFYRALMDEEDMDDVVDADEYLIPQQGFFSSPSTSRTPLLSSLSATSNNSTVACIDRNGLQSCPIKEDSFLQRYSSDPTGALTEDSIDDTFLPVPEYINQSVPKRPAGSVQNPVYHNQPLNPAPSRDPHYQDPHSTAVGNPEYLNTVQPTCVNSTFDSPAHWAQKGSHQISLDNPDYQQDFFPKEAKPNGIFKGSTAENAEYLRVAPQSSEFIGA
The target in test [4] is T3, EGFR(L858R/T790M). Put plainly: EGFR biochemical assay (HTRF), IC50 determination. Set-up: purchased from Carna (GST-a.a. 669-1210); purchased Carna. The conditions noted are these: 10 μM ATP. As to the method:
All EGFR biochemical assays were carried out by HTRF method. The EGFR(L858RT790M) enzyme were purchased from Carna (GST-a.a. 669-1210). The substrate peptide Biotin-TK-peptide was purchased from Cis-Bio. The reaction mixtures contained 1 μM peptide substrate, 10 μM ATP, and 0.036 nM EGFR(L858RT790M) in the reaction buffer (50 mM HEPES pH 7.1, 10 mM MgCl2, 0.01% BSA, 1 mM TCEP and 0.1 mM Na3VO4) at a final volume of 10 μL. All reactions were carried out at room temperature in white ProxiPlate™ 384-well Plus plates (PerkinElmer) and were quenched with 5 μL of 0.2 M EDTA at 60 min Five μL of the detection reagents (2.5 ng PT66K and 0.05 μg SAXL per well) were added, the plates were incubated at room temperature for 1 h and then read in EnVision reader. […] For no-preincubation condition, the compounds were added to the assay solution containing ATP and peptide, and the reaction was initiated by addition of enzyme. For pre-incubation conditions, the compounds were added to the assay solution containing enzyme and peptide, and pre-incubated at room temperature for desired period of time, then the reaction was initiated by addition of ATP.
Target sequence in this assay (P00533 669-1210 T790M/L858R): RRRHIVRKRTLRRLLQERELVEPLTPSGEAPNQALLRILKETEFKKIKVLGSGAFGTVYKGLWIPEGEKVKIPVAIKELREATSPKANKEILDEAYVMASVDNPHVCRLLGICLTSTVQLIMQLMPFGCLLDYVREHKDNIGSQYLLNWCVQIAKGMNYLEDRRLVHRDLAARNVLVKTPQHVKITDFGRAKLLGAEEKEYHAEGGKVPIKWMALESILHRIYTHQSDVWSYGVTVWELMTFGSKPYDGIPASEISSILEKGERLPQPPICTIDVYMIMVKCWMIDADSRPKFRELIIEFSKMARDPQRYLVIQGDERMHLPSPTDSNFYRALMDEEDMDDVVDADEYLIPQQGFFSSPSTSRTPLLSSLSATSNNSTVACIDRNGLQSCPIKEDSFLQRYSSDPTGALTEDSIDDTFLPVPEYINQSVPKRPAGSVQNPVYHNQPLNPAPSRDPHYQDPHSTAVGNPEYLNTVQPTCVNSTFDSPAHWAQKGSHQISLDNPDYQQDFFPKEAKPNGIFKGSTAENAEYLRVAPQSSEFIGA
A general note: TR-FRET usually uses a lanthanide donor and a delayed reading to cut background.

Setting [5] is: EGFR (L858R/T790M) IC50 (μM) 90 min pre-incubation, 90 min pre-incubation.
Where [6] appears, read: no pre-incubation, read-out: EGFR (L858R/T790M) IC50 (μM) No pre-incubation.

SMILES strings stand for the structures.

T1 sequence (P00533 25-1210 L858R): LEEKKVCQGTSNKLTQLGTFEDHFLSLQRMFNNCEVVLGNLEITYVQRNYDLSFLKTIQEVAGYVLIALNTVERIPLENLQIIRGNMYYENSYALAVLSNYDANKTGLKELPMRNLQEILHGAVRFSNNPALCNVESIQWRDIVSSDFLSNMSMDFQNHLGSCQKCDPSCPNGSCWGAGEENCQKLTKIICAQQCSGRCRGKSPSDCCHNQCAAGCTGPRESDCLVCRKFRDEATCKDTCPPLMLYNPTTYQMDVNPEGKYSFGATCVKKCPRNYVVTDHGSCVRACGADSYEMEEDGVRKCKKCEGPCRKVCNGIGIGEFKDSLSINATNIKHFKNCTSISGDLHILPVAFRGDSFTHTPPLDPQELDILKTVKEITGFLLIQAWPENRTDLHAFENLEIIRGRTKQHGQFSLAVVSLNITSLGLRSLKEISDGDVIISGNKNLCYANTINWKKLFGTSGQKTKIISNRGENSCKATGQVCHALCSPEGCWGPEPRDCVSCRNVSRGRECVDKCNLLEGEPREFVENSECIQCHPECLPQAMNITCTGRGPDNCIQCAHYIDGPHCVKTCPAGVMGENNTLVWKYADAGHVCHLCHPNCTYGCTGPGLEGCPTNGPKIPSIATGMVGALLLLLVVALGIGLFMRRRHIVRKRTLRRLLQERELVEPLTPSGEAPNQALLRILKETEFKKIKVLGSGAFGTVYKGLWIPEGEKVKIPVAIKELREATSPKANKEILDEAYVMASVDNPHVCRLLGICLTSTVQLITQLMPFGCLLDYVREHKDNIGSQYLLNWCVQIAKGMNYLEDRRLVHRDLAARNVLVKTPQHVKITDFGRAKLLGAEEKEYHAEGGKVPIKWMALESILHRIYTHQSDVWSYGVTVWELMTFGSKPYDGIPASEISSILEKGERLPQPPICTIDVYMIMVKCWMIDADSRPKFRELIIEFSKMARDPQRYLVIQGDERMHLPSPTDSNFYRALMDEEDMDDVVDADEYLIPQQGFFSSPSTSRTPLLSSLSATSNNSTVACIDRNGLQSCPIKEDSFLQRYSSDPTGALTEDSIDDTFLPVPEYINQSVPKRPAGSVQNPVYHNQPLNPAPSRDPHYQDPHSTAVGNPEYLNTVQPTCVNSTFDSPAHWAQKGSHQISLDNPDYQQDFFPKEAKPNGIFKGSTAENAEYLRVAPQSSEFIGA

For the compound `C=CC(=O)N[C@H]1CCCC(n2c(NC(=O)c3cccc(C(F)(F)F)c3)nc3cccc(C)c32)C1` (mixture of isomers) [Example 6, trans-N-(1-(3-acrylamidocyclohexyl)-7-methyl-1H-benzo[d]imidazol-2-yl)-3-(trifluoromethyl)benzamide], the IC50 was 0.69 µM in test [1]; over 10 µM in test [2]; 0.14 µM in test [3]; 0.009 µM in test [4] (setting [5]); 0.18 µM in test [4] (setting [6]).

Consider `C=CC(=O)N[C@@H]1CCC[C@H](n2c(NC(=O)c3cccc(C(F)(F)F)c3)nc3cc(C)ccc32)C1` (racemic) [Example 8-1, N-{5-methyl-1-[(1S,3R)-3-(prop-2-enamido)cyclohexyl]-1H-1,3-benzodiazol-2-yl}-3-(trifluoromethyl)benzamide], for which the values for the IC50 in test [1], in test [2] and in test [3] were 0.54 µM, over 10 µM and 0.041 µM, respectively.

Regarding `C=CC(=O)NC1CCC(n2c(NC(=O)c3cccc(C(F)(F)F)c3)nc3cc(C)ccc32)C1` (racemic) [Example 8-3, N-{5-methyl-1-[3-(prop-2-enamido)cyclopentyl]-1H-1,3-benzodiazol-2-yl}-3-(trifluoromethyl)benzamide], the IC50 in test [4] (setting [5]) was found to be 0.15 µM; in test [4] (setting [6]), 0.72 µM.

Take `C=CC(=O)N[C@H]1CC[C@@H](n2c(NC(=O)c3cccc(C(F)(F)F)c3)nc3cc(C)ccc32)C1` (single isomer, unassigned) [Example 9-1A]: the results for the IC50 in test [4] (setting [5]) and in test [4] (setting [6]) were 0.08 µM and 0.75 µM, respectively.

As for `C=CC(=O)N[C@@H]1CC[C@H](n2c(NC(=O)c3cccc(C(F)(F)F)c3)nc3cc(C)ccc32)C1` (single isomer, unassigned) [Example 9-1B], the figures for the IC50 in test [4] (setting [5]) and in test [4] (setting [6]) were 0.15 µM and 0.29 µM, respectively.

For the compound `C=CC(=O)N[C@H]1CCC[C@@H](n2c(NC(=O)c3cccc(C(F)(F)F)c3)nc3cc(C)ccc32)C1` (single isomer, unassigned) [Example 9-2A], the IC50 in test [1] was 0.54 µM; in test [2] it was over 10 µM; in test [3], 0.032 µM.

On to `C=CC(=O)N[C@@H]1CCC[C@H](n2c(NC(=O)c3cccc(C(F)(F)F)c3)nc3cc(C)ccc32)C1` (single isomer, unassigned) [Example 9-2B], for which the IC50 in test [1] is over 10 µM; in test [2], over 10 µM; in test [3], 0.4 µM.

Regarding `C=CC(=O)Nc1ccc(-n2c(NC(=O)c3cccc(C(F)(F)F)c3)nc3cc(C)ccc32)cc1` [Example 2-11, N-{5-methyl-1-[4-(prop-2-enamido)phenyl]-1H-1,3-benzodiazol-2-yl}-3-(trifluoromethyl)benzamide], the IC50 turned out to be 0.15 µM in test [4] (setting [5]) and 1.04 µM in test [4] (setting [6]).

Consider `C=CC(=O)Nc1ccccc1-n1c(NC(=O)c2cccc(C(F)(F)F)c2)nc2cc(C)ccc21` [Example 2-12, N-{5-methyl-1-[2-(prop-2-enamido)phenyl]-1H-1,3-benzodiazol-2-yl}-3-(trifluoromethyl)benzamide], for which the IC50 in test [4] (setting [5]) is 0.1 µM; in test [4] (setting [6]), 1.8 µM.

On to `C/C=C/C(=O)Nc1cccc(-n2c(NC(=O)c3cccc(C(F)(F)F)c3)nc3cc(C)ccc32)c1` [Example 2-14, N-{1-[3-(but-2-enamido)phenyl]-5-methyl-1H-1,3-benzodiazol-2-yl}-3-(trifluoromethyl)benzamide], for which the figures for the IC50 in test [4] (setting [5]) and in test [4] (setting [6]) were 0.101 µM and 0.36 µM, respectively.

As for `Cc1cc(C(=O)Nc2nc3cccc(Cl)c3n2-c2cc(NC(=O)/C=C/CN(C)C)ccc2C)ccn1` [Example 2-15, (E)-N-(7-chloro-1-(5-(4-(dimethylamino)but-2-enamido)-2-methylphenyl)-1H-benzo[d]imidazol-2-yl)-2-methylisonicotinamide], the IC50 in test [4] (setting [5]) was found to be 1.06 µM; in test [4] (setting [6]), 20 µM.

Consider `C=CC(=O)Nc1ccc(C)c(-n2c(NC(=O)c3ccnc(C)c3)nc3cccc(Cl)c32)c1` [Example 2-16, N-(1-(5-acrylamido-2-methylphenyl)-7-chloro-1H-benzo[d]imidazol-2-yl)-2-methylisonicotinamide], for which the results for the IC50 in test [4] (setting [5]) and in test [4] (setting [6]) were 1.07 µM and 9.38 µM, respectively.

Consider `C=CC(=O)Nc1cc(-n2c(NC(=O)c3ccnc(C)c3)nc3cccc(Cl)c32)ccc1C` [Example 2-17, N-(1-(3-acrylamido-4-methylphenyl)-7-chloro-1H-benzo[d]imidazol-2-yl)-2-methylisonicotinamide], for which the results for the IC50 in test [4] (setting [5]) and in test [4] (setting [6]) were 0.006 µM and 0.065 µM, respectively.

Turning to `C=CC(=O)Nc1cc(C)cc(-n2c(NC(=O)c3ccnc(C)c3)nc3cccc(Cl)c32)c1` [Example 2-18, N-(1-(3-acrylamido-5-methylphenyl)-7-chloro-1H-benzo[d]imidazol-2-yl)-2-methylisonicotinamide], the IC50 turned out to be 0.046 µM in test [4] (setting [5]) and 0.627 µM in test [4] (setting [6]).

`C=CC(=O)NCCn1c(NC(=O)c2cccc(C(F)(F)F)c2)nc2cc(C)ccc21` [Example 8-5, N-{5-methyl-1-[2-(prop-2-enamido)ethyl]-1H-1,3-benzodiazol-2-yl}-3-(trifluoromethyl)benzamide]: the figures for the IC50 in test [4] (setting [5]) and in test [4] (setting [6]) were 0.82 µM and 2.64 µM, respectively.

As to `C=CC(=O)N[C@H]1CCCCC1n1c(NC(=O)c2cccc(C(F)(F)F)c2)nc2cc(C)ccc21` (stereo partly drawn) [Example 8-6, N-{5-methyl-1-[(1R,25)-2-(prop-2-enamido)cyclohexyl]-1H-1,3-benzodiazol-2-yl}-3-(trifluoromethyl)benzamide], the IC50 in test [4] (setting [5]) was 0.079 µM; in test [4] (setting [6]) it was over 50 µM.

Regarding `C=CC(=O)N[C@@H]1CCCC[C@H]1n1c(NC(=O)c2cccc(C(F)(F)F)c2)nc2cc(C)ccc21` [Example 8-7, N-{5-methyl-1-[(1R,2R)-2-(prop-2-enamido)cyclohexyl]-1H-1,3-benzodiazol-2-yl}-3-(trifluoromethyl)benzamide], the IC50 in test [4] (setting [5]) came out at 0.31 µM; in test [4] (setting [6]) it was 2.3 µM.

Regarding `C=CC(=O)N[C@H]1CC[C@@H](n2c(NC(=O)c3cccc(C(F)(F)F)c3)nc3cc(C)ccc32)CC1` [Example 8-8, N-{5-methyl-1-[(1S,4S)-4-(prop-2-enamido)cyclohexyl]-1H-1,3-benzodiazol-2-yl}-3-(trifluoromethyl)benzamide], the IC50 in test [4] (setting [5]) was 0.21 µM; in test [4] (setting [6]), 0.46 µM.

For `C=CC(=O)N[C@H]1CC[C@H](n2c(NC(=O)c3cccc(C(F)(F)F)c3)nc3cc(C)ccc32)CC1` [Example 8-9, N-{5-methyl-1-[(1R,4R)-4-(prop-2-enamido)cyclohexyl]-1H-1,3-benzodiazol-2-yl}-3-(trifluoromethyl)benzamide], the IC50 in test [4] (setting [5]) was found to be 0.57 µM; in test [4] (setting [6]), 0.22 µM.
